Columns and labels:
Type in all cases: in vivo
[1] = system: Chilo suppressalis (Striped Rice Stemborer); experiment: Example B3: Chilo suppressalis, artificial diet; settings: 144 h, application rate of 200 ppm, L2 larvae, 6 days after infestation, read-out: control in at least one of the three categories (mortality, anti-feedant effect, or growth inhibition)
Protocol: Example B3: Chilo suppressalis (Striped Rice Stemborer)
24-well microtiter plates with artificial diet were treated with aqueous test solutions prepared from 10,000 ppm DMSO stock solutions by pipetting. After drying, the plates were infested with L2 larvae (6-8 per well). The samples were assessed for mortality, anti-feeding effect, and growth inhibition in comparison to untreated samples 6 days after infestation. Control of Chilo suppressalis by a test sample is given when at least one of the categories mortality, anti-feedant effect, and growth inhibition is higher than the untreated sample.

[2] = system: Plutella xylostella (Diamondback Moth); experiment: Example B9: Plutella xylostella, artificial diet, 96-well; settings: 216 h, application rate of 500 ppm, eggs/L1 larvae, 9 days after infestation
Protocol: Example B9: Plutella xylostella (Diamondback Moth)
96-well microtiter plates containing artificial diet were treated with aqueous test solutions, prepared from 10,000 ppm DMSO stock solutions, by a liquid handling robot. After drying, eggs (˜30 per well) were infested onto a netted lid which was suspended above the diet. The eggs hatch and L1 larvae move down to the diet. The samples were assessed for mortality 9 days after infestation.
The following compounds gave an effect of at least 80% mortality at an application rate of 500 ppm: […]

[3] = system: Spodoptera littoralis (Egyptian Cotton Leaf Worm); experiment: Example B6: Spodoptera littoralis, spray on cotton leaf discs; settings: foliar, 72 h, application rate of 200 ppm, L1 larvae, 3 days after infestation, read-out: control in at least one of the three categories (mortality, anti-feedant effect, or growth inhibition)
Protocol: Example B6: Spodoptera littoralis (Egyptian Cotton Leaf Worm)
Cotton leaf discs were placed onto agar in 24-well microtiter plates and sprayed with aqueous test solutions prepared from 10,000 ppm DMSO stock solutions. After drying the leaf discs were infested with five L1 larvae. The samples were assessed for mortality, anti-feeding effect, and growth inhibition in comparison to untreated samples 3 days after infestation. Control of Spodoptera littoralis by a test sample is given when at least one of the categories mortality, anti-feedant effect, and growth inhibition is higher than the untreated sample.

[4] = system: Plutella xylostella (Diamond Back Moth); experiment: Example B4: Plutella xylostella, artificial diet, 24-well; settings: 192 h, application rate of 200 ppm, eggs, 8 days after infestation, read-out: control in at least one of the two categories (mortality or growth inhibition)
Protocol: Example B4: Plutella xylostella (Diamond Back Moth)
24-well microtiter plates with artificial diet were treated with aqueous test solutions prepared from 10,000 ppm DMSO stock solutions by pipetting. After drying, Plutella eggs were pipetted through a plastic stencil onto a gel blotting paper and the plate was closed with it. The samples were assessed for mortality and growth inhibition in comparison to untreated samples 8 days after infestation.
(§1) The following compounds gave an effect of at least 80% control in at least one of the two categories (mortality or growth inhibition) at an application rate of 200 ppm: […]

[5] = system: Diabrotica balteata (Corn Root Worm); experiment: Example B1: Diabrotica balteata, spray on maize sprouts; settings: 96 h, application rate of 200 ppm, L2 larvae, 4 days after infestation, read-out: control in at least one of the two categories (mortality or growth inhibition)
Protocol: Example B1: Diabrotica balteata (Corn Root Worm)
Maize sprouts placed onto an agar layer in 24-well microtiter plates were treated with aqueous test solutions prepared from 10,000 ppm DMSO stock solutions by spraying. After drying, the plates were infested with L2 larvae (6 to 10 per well). The samples were assessed for mortality and growth inhibition in comparison to untreated samples 4 days after infestation.
as §1

Cc1cn(-c2nccnc2C(C)NC(=O)c2cc(C(F)(F)F)cc(C(F)(F)F)c2)nn1 (centres unmarked) [Compound P41, N-[1-[3-(4-methyltriazol-1-yl)pyrazin-2-yl]ethyl]-3,5-bis(trifluoromethyl)benzamide]
≥ 80%: percent control (mortality, anti-feedant effect or growth inhibition) at 200 ppm [1] | mortality at 500 ppm [2] | percent control (mortality, anti-feedant effect or growth inhibition) at 200 ppm [3] | percent control (mortality or growth inhibition) at 200 ppm [4]

Cc1cnn(-c2nccnc2C(C)NC(=O)c2cc(C(F)(F)F)cc(C(F)(F)F)c2)n1 (centres unmarked) [Compound P1, N-[1-[3-(4-methyltriazol-2-yl)pyrazin-2-yl]ethyl]-3,5-bis(trifluoromethyl)benzamide]
≥ 80%: percent control (mortality, anti-feedant effect or growth inhibition) at 200 ppm [1] | mortality at 500 ppm [2] | percent control (mortality or growth inhibition) at 200 ppm [4]

Cc1cc(C)cc(C(=O)NC(C)c2nccnc2-n2nccn2)c1 (centres unmarked) [Compound P24, 3,5-dimethyl-N-[1-[3-(triazol-2-yl)pyrazin-2-yl]ethyl]benzamide]
≥ 80%: mortality at 500 ppm [2]

COc1cc(C(=O)NC(C)c2nccnc2-n2nccn2)cc(Cl)n1 (centres unmarked) [Compound P32, 2-chloro-6-methoxy-N-[1-[3-(triazol-2-yl)pyrazin-2-yl]ethyl]pyridine-4-carboxamide]
≥ 80%: mortality at 500 ppm [2]

CC(NC(=O)c1cc(C(F)(F)F)cc(C(F)(F)C2CC2)c1)c1nccnc1-n1nccn1 (centres unmarked) [Compound P17, 3-[cyclopropyl(difluoro)methyl]-N-[1-[3-(triazol-2-yl)pyrazin-2-yl]ethyl]-5-(trifluoromethyl)benzamide]
≥ 80%: percent control (mortality, anti-feedant effect or growth inhibition) at 200 ppm [1] | mortality at 500 ppm [2] | percent control (mortality or growth inhibition) at 200 ppm [5] | percent control (mortality, anti-feedant effect or growth inhibition) at 200 ppm [3] | percent control (mortality or growth inhibition) at 200 ppm [4]

CC(NC(=O)c1cc(C(F)(F)F)cc(S(=O)(=O)C(F)(F)F)c1)c1nccnc1-n1nccn1 (centres unmarked) [Compound P13, N-[1-[3-(triazol-2-yl)pyrazin-2-yl]ethyl]-3-(trifluoromethyl)-5-(trifluoromethylsulfonyl)benzamide]
≥ 80%: percent control (mortality, anti-feedant effect or growth inhibition) at 200 ppm [1] | mortality at 500 ppm [2] | percent control (mortality or growth inhibition) at 200 ppm [5] | percent control (mortality, anti-feedant effect or growth inhibition) at 200 ppm [3] | percent control (mortality or growth inhibition) at 200 ppm [4]

CC(=O)c1cn(-c2nccnc2C(C)NC(=O)c2cc(C(F)(F)F)cc(C(F)(F)F)c2)nn1 (centres unmarked) [Compound P55, N-[1-[3-(4-acetyltriazol-1-yl)pyrazin-2-yl]ethyl]3,5-bis(trifluoromethyl)benzamide]
≥ 80%: percent control (mortality, anti-feedant effect or growth inhibition) at 200 ppm [1] | percent control (mortality or growth inhibition) at 200 ppm [4]

CC(NC(=O)c1cc(F)cc(Cl)c1)c1nccnc1-n1nccn1 (centres unmarked) [Compound P25, 3-chloro-5-fluoro-N-[1-[3-(triazol-2-yl)pyrazin-2-yl]ethyl]benzamide]
≥ 80%: mortality at 500 ppm [2] | percent control (mortality or growth inhibition) at 200 ppm [5] | percent control (mortality or growth inhibition) at 200 ppm [4]

Cc1cnc(C(C)NC(=O)c2cc(C(F)(F)F)cc(C(F)(F)F)c2)c(-n2nccn2)n1 (centres unmarked) [Compound P18, N-[1-[5-methyl-3-(triazol-2-yl)pyrazin-2-yl]ethyl]-3,5-bis(trifluoromethyl)benzamide]
≥ 80%: percent control (mortality, anti-feedant effect or growth inhibition) at 200 ppm [1] | percent control (mortality or growth inhibition) at 200 ppm [4]

CC(c1nccnc1-n1nccn1)N(CC1CC1)C(=O)c1cc(C(F)(F)F)cc(C(F)(F)F)c1 (centres unmarked) [Compound P50, N-(cyclopropylmethyl)-N-[1-[3-(triazol-2-yl)pyrazin-2-yl]ethyl]-3,5-bis(trifluoromethyl)benzamide]
≥ 80%: mortality at 500 ppm [2] | percent control (mortality or growth inhibition) at 200 ppm [5] | percent control (mortality, anti-feedant effect or growth inhibition) at 200 ppm [3] | percent control (mortality or growth inhibition) at 200 ppm [4]

CC(c1nccnc1-n1cncn1)N(CC1CC1)C(=O)c1cc(C(F)(F)F)cc(C(F)(F)F)c1 (centres unmarked) [Compound P48, N-(cyclopropylmethyl)-N-[1-[3-(1,2,4-triazol-1-yl)pyrazin-2-yl]ethyl]-3,5-bis(trifluoromethyl)benzamide]
≥ 80%: mortality at 500 ppm [2] | percent control (mortality or growth inhibition) at 200 ppm [5] | percent control (mortality, anti-feedant effect or growth inhibition) at 200 ppm [3] | percent control (mortality or growth inhibition) at 200 ppm [4]

CO/N=C(\C)c1cnn(-c2nccnc2C(C)NC(=O)c2cc(C(F)(F)F)cc(C(F)(F)F)c2)n1 (centres unmarked) [Compound P54, N-[1-[3-[4-[(E)-N-methoxy-C-methyl-carbonimidoyl]triazol-2-yl]pyrazin-2-yl]ethyl]-3,5-bis(trifluoromethyl)benzamide]
≥ 80%: percent control (mortality or growth inhibition) at 200 ppm [5] | percent control (mortality, anti-feedant effect or growth inhibition) at 200 ppm [3] | percent control (mortality or growth inhibition) at 200 ppm [4]

CC(=O)c1cnn(-c2nccnc2C(C)NC(=O)c2cc(C(F)(F)F)cc(C(F)(F)F)c2)n1 (centres unmarked) [Compound P57, N-[1-[3-(4-acetyltriazol-2-yl)pyrazin-2-yl]ethyl]-3,5-bis(trifluoromethyl)benzamide]
≥ 80%: percent control (mortality, anti-feedant effect or growth inhibition) at 200 ppm [1] | percent control (mortality or growth inhibition) at 200 ppm [4]

CC(NC(=O)c1cc(C(F)(F)F)cc(C(F)(F)F)c1)c1nccnc1-n1ccnn1 (centres unmarked) [Compound P44, N-[1-[3-(triazol-1-yl)pyrazin-2-yl]ethyl]-3,5-bis(trifluoromethyl)benzamide]
≥ 80%: percent control (mortality, anti-feedant effect or growth inhibition) at 200 ppm [1] | percent control (mortality or growth inhibition) at 200 ppm [5] | percent control (mortality, anti-feedant effect or growth inhibition) at 200 ppm [3] | percent control (mortality or growth inhibition) at 200 ppm [4]

CC(NC(=O)c1cc(C(F)(F)F)cc(C(F)(F)F)c1)c1nccnc1-n1nnc2ccccc21 (centres unmarked) [Compound P51, N-[1-[3-(benzotriazol-1-yl)pyrazin-2-yl]ethyl]-3,5-bis(trifluoromethyl)benzamide]
≥ 80%: mortality at 500 ppm [2] | percent control (mortality or growth inhibition) at 200 ppm [4]

CC(NC(=O)c1cc(C(F)(F)F)cc(C(F)(F)F)c1)c1nccnc1-n1cc(C2CC2)nn1 (centres unmarked) [Compound P42, N-[1-[3-(4-cyclopropyltriazol-1-yl)pyrazin-2-yl]ethyl]-3,5-bis(trifluoromethyl)benzamide]
≥ 80%: percent control (mortality, anti-feedant effect or growth inhibition) at 200 ppm [1] | mortality at 500 ppm [2] | percent control (mortality, anti-feedant effect or growth inhibition) at 200 ppm [3] | percent control (mortality or growth inhibition) at 200 ppm [4]

CC(NC(=O)c1cc(C(F)(F)F)cc(C(F)(F)F)c1)c1nccnc1-n1ncc(I)n1 (centres unmarked) [Compound P53, N-[1-[3-(4-iodotriazol-2-yl)pyrazin-2-yl]ethyl]-3,5-bis(trifluoromethyl)benzamide]
≥ 80%: percent control (mortality, anti-feedant effect or growth inhibition) at 200 ppm [1] | percent control (mortality or growth inhibition) at 200 ppm [5] | percent control (mortality, anti-feedant effect or growth inhibition) at 200 ppm [3] | percent control (mortality or growth inhibition) at 200 ppm [4]

CC(NC(=O)c1cc(C(F)(F)F)cc(C(F)(F)F)c1)c1nccnc1-n1cc(C#N)cn1 (centres unmarked) [Compound P47, N-[1-[3-(4-cyanopyrazol-1-yl)pyrazin-2-yl]ethyl]-3,5-bis(trifluoromethyl)benzamide]
≥ 80%: percent control (mortality, anti-feedant effect or growth inhibition) at 200 ppm [1] | percent control (mortality or growth inhibition) at 200 ppm [5] | percent control (mortality, anti-feedant effect or growth inhibition) at 200 ppm [3] | percent control (mortality or growth inhibition) at 200 ppm [4]

CC(NC(=O)c1cc(OCC(F)(F)F)cc(C(F)(F)F)c1)c1nccnc1-n1nccn1 (centres unmarked) [Compound P8, N-[1-[3-(triazol-2-yl)pyrazin-2-yl]ethyl]-3-(2,2,2-trifluoroethoxy)-5-(trifluoromethyl)benzamide]
≥ 80%: percent control (mortality, anti-feedant effect or growth inhibition) at 200 ppm [1] | percent control (mortality or growth inhibition) at 200 ppm [5] | percent control (mortality, anti-feedant effect or growth inhibition) at 200 ppm [3] | percent control (mortality or growth inhibition) at 200 ppm [4]

CC(NC(=O)c1cc(C(F)(F)F)cc(C(F)(F)F)c1)c1nccnc1-n1cccn1 (centres unmarked) [Compound P45]
≥ 80%: percent control (mortality or growth inhibition) at 200 ppm [5]

From patent US20220289715A1, “PESTICIDALLY ACTIVE PYRAZINE-AMIDE COMPOUNDS” (priority 2019, published 2022)
